Assay results from patent US8598344B2, “CDKI pathway inhibitors and uses thereof” (Senex Biotechnology, priority 2009, dated 2013).

Key:
Assay in all cases: KinomeScan competition binding assay
[1] = molecular target: T1, CSNK1G2 (Homo sapiens, UniProt P78368); conditions: 10 μM compound
T1 construct: purchased KinomeScan, a division of Ambit Biosciences
Text: (§1) This similarity led us to test SNX14 for the ability to inhibit 285 kinases, using the services of KinaseProfiler of Millipore Corporation (285 kinases). […] The KINOMEscan assay has been described in detail in Fabian et al., Nat. Biotechnol. 23: 329 (2005) and Karaman et al., Nat. Biotechnol. 26: 127 (2008).
(§2) The KinomeScan assay is based on a competition binding assay that quantitatively measures the ability of a compound to compete with an immobilized, ATP site directed ligand. The assay is performed by combining three components: DNA-tagged kinase; immobilized ligand; and a test compound. The ability of the test compound to compete with the immobilized ligand is measured via quantitative PCR of the DNA tag. […] The CDKs tested by Millipore for inhibition with SNX14 included CDK1, CDK2, CDK3, CDK5, CDK7 and CDK9; none of these were inhibited to less than 49 percent of control (POC) activity. The CDKs tested by KinomeScan for the effect of Compound 1 included CDK2, CDK3, CDK4, CDK5, CDK7, CDK8, CDK9 and CDK19; aside from CDK8 and CDK19, the strongest inhibited CDK was CDK7 (33% POC binding). To determine the inhibition of which kinases correlates with the biological activity of SNX2-class compounds, we tested eight additional compounds of the SNX2 family, which gave different IC50 values in the cellular assays, for the ability to affect 24 kinases that were most susceptible to compound 1, through the services of KinomeScan. […] We have also determined the binding constant (Kd) for SNX14, compound 1, compound 20, compound 26, compound 43 and compound 14 in kinase assays for CDK8 and CDK19 (Table 1).

[2] = molecular target: T2, MAPKAPK5 (Homo sapiens, UniProt Q8IW41); conditions: 10 μM compound
T2 construct: purchased KinomeScan, a division of Ambit Biosciences
T2 sequence (Q8IW41 1-473): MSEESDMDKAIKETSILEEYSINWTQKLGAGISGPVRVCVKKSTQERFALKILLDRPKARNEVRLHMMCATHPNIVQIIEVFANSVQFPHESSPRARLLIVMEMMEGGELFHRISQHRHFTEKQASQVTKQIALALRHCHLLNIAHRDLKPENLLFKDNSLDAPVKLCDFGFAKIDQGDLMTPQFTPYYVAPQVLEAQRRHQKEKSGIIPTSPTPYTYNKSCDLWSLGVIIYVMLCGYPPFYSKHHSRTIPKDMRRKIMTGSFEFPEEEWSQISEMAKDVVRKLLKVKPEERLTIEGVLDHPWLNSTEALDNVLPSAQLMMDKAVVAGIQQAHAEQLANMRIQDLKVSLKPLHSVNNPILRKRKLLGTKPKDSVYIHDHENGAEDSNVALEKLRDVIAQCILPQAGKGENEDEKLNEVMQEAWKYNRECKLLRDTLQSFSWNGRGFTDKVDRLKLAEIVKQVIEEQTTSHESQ
Text: as §1, §2

[3] = molecular target: T3, CLK1 (Homo sapiens, UniProt P49759); conditions: 10 μM compound
T3 construct: purchased KinomeScan, a division of Ambit Biosciences
T3 sequence (P49759 whole entry): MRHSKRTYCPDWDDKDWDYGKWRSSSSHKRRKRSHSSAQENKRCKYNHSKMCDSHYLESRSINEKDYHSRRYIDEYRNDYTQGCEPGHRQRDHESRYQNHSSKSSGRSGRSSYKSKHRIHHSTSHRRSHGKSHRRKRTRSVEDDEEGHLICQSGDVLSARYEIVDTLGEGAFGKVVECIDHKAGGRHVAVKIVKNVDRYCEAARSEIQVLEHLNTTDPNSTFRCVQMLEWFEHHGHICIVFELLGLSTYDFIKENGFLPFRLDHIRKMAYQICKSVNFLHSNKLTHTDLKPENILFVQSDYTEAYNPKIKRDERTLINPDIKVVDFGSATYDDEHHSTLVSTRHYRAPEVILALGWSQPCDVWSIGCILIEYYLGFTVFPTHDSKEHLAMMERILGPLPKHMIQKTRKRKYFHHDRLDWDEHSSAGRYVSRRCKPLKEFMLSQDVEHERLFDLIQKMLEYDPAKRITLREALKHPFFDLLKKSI
Text: as §1, §2

[4] = molecular target: T4, SLK (Homo sapiens, UniProt Q9H2G2); conditions: 10 μM compound
T4 construct: purchased KinomeScan, a division of Ambit Biosciences
T4 sequence (Q9H2G2 whole entry): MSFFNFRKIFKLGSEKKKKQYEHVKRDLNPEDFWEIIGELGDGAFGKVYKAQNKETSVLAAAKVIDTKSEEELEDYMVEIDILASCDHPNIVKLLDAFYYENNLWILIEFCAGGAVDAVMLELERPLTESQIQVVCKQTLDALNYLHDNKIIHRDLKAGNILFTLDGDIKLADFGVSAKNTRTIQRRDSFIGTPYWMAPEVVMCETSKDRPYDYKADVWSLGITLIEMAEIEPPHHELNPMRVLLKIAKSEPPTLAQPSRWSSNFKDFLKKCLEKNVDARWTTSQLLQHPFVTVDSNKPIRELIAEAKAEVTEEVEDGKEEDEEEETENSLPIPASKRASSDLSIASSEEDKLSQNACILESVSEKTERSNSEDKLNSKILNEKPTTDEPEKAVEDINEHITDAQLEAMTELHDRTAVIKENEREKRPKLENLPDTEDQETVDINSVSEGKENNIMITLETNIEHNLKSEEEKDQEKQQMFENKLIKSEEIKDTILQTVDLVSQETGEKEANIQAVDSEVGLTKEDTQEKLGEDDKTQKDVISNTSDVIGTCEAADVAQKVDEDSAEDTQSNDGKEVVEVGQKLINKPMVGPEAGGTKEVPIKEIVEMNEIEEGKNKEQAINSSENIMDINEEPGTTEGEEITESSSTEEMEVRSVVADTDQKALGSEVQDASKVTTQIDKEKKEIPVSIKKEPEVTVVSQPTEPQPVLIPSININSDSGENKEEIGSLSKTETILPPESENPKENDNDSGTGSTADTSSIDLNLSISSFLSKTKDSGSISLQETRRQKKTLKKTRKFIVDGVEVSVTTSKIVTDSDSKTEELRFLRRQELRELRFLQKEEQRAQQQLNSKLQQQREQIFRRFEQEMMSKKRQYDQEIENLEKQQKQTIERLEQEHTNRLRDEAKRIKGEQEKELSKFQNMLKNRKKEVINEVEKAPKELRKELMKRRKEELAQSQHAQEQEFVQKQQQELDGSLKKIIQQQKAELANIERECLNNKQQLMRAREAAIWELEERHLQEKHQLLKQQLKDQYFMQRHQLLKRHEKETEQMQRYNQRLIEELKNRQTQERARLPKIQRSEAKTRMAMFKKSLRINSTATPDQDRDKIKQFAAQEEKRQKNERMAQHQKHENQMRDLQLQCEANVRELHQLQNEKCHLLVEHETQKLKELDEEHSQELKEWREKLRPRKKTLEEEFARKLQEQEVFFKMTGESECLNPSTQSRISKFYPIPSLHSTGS
Text: as §1, §2

[5] = molecular target: T5, STK16 (Homo sapiens, UniProt O75716); conditions: 10 μM compound
T5 construct: purchased KinomeScan, a division of Ambit Biosciences
T5 sequence (O75716 whole entry): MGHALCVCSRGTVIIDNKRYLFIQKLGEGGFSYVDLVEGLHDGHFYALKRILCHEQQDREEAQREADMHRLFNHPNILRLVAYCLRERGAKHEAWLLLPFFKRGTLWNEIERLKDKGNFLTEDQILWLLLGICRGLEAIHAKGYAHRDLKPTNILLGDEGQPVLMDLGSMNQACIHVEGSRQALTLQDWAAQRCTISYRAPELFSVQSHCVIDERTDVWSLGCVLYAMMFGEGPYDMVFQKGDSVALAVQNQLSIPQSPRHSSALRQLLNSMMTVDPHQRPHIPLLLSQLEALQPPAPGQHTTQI
Text: as §1, §2

[6] = molecular target: T6, MAP4K2 (Homo sapiens, UniProt Q12851); conditions: 10 μM compound
T6 construct: purchased KinomeScan, a division of Ambit Biosciences
T6 sequence (Q12851 1-820): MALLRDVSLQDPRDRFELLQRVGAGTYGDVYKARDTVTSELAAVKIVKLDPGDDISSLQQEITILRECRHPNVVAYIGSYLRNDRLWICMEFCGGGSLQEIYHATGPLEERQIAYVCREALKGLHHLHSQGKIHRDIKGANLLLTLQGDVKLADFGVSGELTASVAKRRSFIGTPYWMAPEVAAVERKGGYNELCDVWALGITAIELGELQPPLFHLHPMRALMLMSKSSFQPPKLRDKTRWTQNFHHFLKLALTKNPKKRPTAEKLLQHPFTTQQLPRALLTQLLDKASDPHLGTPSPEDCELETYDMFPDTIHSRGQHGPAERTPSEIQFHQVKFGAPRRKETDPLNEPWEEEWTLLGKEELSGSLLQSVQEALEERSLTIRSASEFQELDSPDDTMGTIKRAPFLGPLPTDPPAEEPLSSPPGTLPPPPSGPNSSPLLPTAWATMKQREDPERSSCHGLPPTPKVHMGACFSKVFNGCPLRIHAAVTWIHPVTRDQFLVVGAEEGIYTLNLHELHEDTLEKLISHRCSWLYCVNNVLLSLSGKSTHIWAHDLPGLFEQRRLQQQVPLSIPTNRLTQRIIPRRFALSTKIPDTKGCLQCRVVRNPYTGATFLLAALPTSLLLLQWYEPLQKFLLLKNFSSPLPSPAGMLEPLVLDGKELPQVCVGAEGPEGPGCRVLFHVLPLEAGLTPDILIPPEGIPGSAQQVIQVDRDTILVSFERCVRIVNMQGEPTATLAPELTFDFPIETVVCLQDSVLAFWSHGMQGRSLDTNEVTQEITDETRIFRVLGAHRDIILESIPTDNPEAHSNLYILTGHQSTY
Text: as §1, §2

[7] = molecular target: T7, PIK3CG (Homo sapiens, UniProt P48736); conditions: 10 μM compound
T7 construct: purchased KinomeScan, a division of Ambit Biosciences
T7 sequence (P48736 whole entry): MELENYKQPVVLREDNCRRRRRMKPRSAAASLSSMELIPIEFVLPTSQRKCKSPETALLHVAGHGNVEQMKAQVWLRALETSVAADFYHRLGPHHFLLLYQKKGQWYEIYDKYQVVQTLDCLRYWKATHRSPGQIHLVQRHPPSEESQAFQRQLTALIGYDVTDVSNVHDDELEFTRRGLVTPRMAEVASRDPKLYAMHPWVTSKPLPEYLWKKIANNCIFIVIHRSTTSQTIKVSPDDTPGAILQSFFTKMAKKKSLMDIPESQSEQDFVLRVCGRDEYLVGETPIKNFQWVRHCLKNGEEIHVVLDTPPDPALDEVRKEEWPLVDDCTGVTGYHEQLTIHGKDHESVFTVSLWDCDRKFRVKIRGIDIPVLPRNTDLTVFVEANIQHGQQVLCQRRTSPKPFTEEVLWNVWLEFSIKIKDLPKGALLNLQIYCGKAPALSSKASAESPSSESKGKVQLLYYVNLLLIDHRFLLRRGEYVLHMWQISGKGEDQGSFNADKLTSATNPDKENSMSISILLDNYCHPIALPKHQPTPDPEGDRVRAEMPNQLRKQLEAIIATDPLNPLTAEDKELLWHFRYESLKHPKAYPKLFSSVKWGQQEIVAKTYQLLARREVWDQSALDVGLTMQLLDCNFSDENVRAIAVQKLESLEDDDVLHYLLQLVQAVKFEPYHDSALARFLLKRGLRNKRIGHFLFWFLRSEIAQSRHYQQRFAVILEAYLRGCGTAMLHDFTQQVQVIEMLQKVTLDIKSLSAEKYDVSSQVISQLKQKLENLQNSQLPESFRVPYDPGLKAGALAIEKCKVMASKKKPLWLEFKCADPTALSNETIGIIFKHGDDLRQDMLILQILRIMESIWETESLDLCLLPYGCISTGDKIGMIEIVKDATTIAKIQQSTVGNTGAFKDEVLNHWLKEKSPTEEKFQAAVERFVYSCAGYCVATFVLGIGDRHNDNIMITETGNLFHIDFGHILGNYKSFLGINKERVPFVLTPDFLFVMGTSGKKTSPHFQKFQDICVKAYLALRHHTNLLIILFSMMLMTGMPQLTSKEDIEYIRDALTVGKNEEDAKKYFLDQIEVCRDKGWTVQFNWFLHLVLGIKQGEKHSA
Text: as §1, §2

[8] = molecular target: T8, CLK4 (Homo sapiens, UniProt Q9HAZ1); conditions: 10 μM compound
T8 construct: purchased KinomeScan, a division of Ambit Biosciences
Text: as §1, §2

[9] = molecular target: T9, CSNK1G3 (Homo sapiens, UniProt Q9Y6M4); conditions: 10 μM compound
T9 construct: purchased KinomeScan, a division of Ambit Biosciences
T9 sequence (Q9Y6M4 whole entry): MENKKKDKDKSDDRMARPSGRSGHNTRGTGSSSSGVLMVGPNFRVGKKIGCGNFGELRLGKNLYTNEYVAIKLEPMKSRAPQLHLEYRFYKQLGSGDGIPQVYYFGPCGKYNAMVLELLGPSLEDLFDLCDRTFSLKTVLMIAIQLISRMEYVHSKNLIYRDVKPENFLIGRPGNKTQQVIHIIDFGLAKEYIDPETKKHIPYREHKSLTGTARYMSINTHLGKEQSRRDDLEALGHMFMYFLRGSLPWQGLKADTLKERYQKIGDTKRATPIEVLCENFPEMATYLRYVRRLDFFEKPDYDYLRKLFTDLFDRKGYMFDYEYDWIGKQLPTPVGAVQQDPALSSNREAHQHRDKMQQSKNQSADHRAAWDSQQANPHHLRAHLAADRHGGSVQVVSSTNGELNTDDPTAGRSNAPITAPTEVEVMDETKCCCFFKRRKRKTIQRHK
Text: as §1, §2

[10] = molecular target: T10, CDK8 (Homo sapiens, UniProt P49336); conditions: for POC ligand binding, CDK8: 10 μM compound; for Kd: read-out: CDK8 inhibition (Kd); for inhibition of CDK8: 10 μM
T10 construct: purchased KinomeScan, a division of Ambit Biosciences
T10 sequence (P49336 whole entry): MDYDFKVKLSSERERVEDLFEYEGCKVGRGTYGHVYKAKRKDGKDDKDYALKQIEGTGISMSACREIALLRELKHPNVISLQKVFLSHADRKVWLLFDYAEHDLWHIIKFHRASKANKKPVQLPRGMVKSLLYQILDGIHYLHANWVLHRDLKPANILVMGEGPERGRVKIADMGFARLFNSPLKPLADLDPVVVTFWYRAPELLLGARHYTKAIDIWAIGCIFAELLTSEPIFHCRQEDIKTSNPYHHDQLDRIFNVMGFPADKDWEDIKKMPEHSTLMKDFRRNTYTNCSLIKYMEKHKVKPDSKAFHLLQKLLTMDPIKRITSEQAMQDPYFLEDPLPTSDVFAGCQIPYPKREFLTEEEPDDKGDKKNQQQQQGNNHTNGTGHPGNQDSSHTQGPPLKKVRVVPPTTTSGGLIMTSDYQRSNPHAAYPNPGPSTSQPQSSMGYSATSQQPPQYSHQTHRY
Text: as §1, §2

[11] = molecular target: T11, CLK2 (Homo sapiens, UniProt P49760); conditions: 10 μM compound
T11 construct: purchased KinomeScan, a division of Ambit Biosciences
T11 sequence (P49760 whole entry): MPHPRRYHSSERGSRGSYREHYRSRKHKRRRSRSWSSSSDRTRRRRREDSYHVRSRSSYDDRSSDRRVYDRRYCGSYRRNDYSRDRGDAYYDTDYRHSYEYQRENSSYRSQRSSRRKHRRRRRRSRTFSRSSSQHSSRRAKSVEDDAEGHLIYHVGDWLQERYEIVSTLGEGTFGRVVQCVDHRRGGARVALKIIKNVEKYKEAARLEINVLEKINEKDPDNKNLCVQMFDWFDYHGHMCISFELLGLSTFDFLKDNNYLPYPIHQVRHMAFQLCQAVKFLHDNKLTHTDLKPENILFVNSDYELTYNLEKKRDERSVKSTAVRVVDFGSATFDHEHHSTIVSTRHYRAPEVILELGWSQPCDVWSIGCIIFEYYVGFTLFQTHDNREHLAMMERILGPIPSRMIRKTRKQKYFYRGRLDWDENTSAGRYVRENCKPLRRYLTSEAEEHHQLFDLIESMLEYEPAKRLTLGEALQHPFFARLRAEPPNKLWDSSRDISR
Text: as §1, §2

T1 sequence (P78368 whole entry): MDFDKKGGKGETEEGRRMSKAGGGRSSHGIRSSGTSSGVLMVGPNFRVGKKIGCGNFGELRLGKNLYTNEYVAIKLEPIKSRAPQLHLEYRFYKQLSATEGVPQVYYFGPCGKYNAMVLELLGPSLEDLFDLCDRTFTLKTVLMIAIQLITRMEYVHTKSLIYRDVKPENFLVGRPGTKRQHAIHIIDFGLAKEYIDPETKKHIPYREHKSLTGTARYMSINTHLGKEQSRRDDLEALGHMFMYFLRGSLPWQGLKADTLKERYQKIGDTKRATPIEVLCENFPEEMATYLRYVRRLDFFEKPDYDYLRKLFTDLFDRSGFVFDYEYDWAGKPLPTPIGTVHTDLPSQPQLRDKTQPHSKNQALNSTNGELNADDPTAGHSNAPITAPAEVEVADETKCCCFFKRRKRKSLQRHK

| Structure (SMILES) | POC ligand binding, CSNK1G2 [1] | POC ligand binding, MAPKAPK5 [2] | POC ligand binding, CLK1 [3] | POC ligand binding, SLK [4] | POC ligand binding, STK16 [5] | POC ligand binding, MAP4K2 [6] | POC ligand binding, PIK3CG [7] | POC ligand binding, CLK4 [8] | POC ligand binding, CSNK1G3 [9] | POC ligand binding, CDK8 [10] | POC ligand binding, CLK2 [11] | Kd [10] | other results |
| --- | --- | --- | --- | --- | --- | --- | --- | --- | --- | --- | --- | --- | --- |
| COc1ccc2ncnc(NCCc3ccccc3)c2c1 [compound 44] | 80 POC | 94 POC | 17 POC | 43 POC | 70 POC | 35 POC | 88 POC | 17 POC | 84 POC | 24 POC | 34 POC |  |  |
| N#Cc1ccc2ncnc(NCc3ccc(Cl)cc3)c2c1 [compound 20] | 62 POC | 92 POC | 12 POC | 61 POC | 25 POC | 21 POC | 40 POC | 11 POC | 82 POC | 0.15 POC | 16 POC | 240 nM |  |
| N#Cc1ccc2ncnc(NCCc3ccccc3)c2c1 [compound 1] | 16 POC | 15 POC | 4.2 POC | 11 POC | 4.2 POC | 12 POC | 8 POC | 8 POC | 16 POC |  | 3.8 POC | 830 nM | inhibition of CDK8 [10]: > 99% |
| CCCNc1ncnc2ccc(N3CCOCC3)cc12 [compound 46] | 55 POC | 91 POC | 48 POC | 88 POC | 80 POC | 82 POC | 94 POC | 24 POC | 100 POC | 100 POC | 66 POC |  |  |
| N#Cc1ccc2ncnc(NCc3ccc4ccccc4c3)c2c1 [compound 43] |  |  |  |  |  |  | 35 POC |  |  |  |  | 240 nM | POC ligand binding, CSNK1G2 ([1]; 10 µM): 53 POC; POC ligand binding, MAPKAPK5 ([2]; 10 µM): 85 POC; POC ligand binding, CLK1 ([3]; 10 µM): 9 POC; POC ligand binding, SLK ([4]; 10 µM): 92 POC; POC ligand binding, STK16 ([5]; 10 µM): 30 POC; POC ligand binding, MAP4K2 ([6]; 10 µM): 28 POC; POC ligand binding, CLK4 ([8]; 10 µM): 9.6 POC; POC ligand binding, CSNK1G3 ([9]; 10 µM): 54 POC; POC ligand binding, CDK8 ([10]; 10 µM): 1.6 POC; POC ligand binding, CLK2 ([11]; 10 µM): 9.6 POC |
| CC(C)CNc1ncnc2ccc(C(F)(F)F)cc12 [compound 45] | 53 POC | 100 POC | 8.4 POC | 59 POC | 17 POC | 12 POC | 82 POC | 7.8 POC | 50 POC | 37 POC | 8.6 POC |  |  |
| N#Cc1ccc2ncnc(NCc3ccc4ccccc4c3)c2c1 [compound 14] |  |  |  |  |  |  | 35 POC |  |  |  |  | 2500 nM | POC ligand binding, CSNK1G2 ([1]; 10 µM): 43 POC; POC ligand binding, MAPKAPK5 ([2]; 10 µM): 100 POC; POC ligand binding, CLK1 ([3]; 10 µM): 18 POC; POC ligand binding, SLK ([4]; 10 µM): 90 POC; POC ligand binding, STK16 ([5]; 10 µM): 2.4 POC; POC ligand binding, MAP4K2 ([6]; 10 µM): 16 POC; POC ligand binding, CLK4 ([8]; 10 µM): 16 POC; POC ligand binding, CSNK1G3 ([9]; 10 µM): 52 POC; POC ligand binding, CDK8 ([10]; 10 µM): 0.4 POC; POC ligand binding, CLK2 ([11]; 10 µM): 24 POC |
| N#Cc1ccc2ncnc(NCCc3ccc4ccccc4c3)c2c1 [compound 26] | 57 POC | 100 POC | 32 POC | 73 POC | 16 POC | 28 POC | 58 POC | 26 POC | 50 POC | 0 POC | 58 POC | 570 nM | inhibition of CDK8 [10]: ~100% |
